In series [1] the target is T1, ATP-dependent translocase ABCB1 (Homo sapiens, UniProt P08183). As to conditions: dog.
Description: (§1) Apparent permeability (Papp) from apical to basolateral side determined in MDR1-MDCKII cells
The target in series [2] is T1, ATP-dependent translocase ABCB1. As to conditions: dog. The source holds these as a separate data set.
Description: (§2) Apparent permeability (Papp) from basolateral to apical side determined in MDR1-MDCKII cells
Series [3] addresses T2, ATP-dependent translocase ABCB1 (MDR1) (Homo sapiens, UniProt P08183). The series can be described thus: in vitro. As to conditions: dog.
Description: as §1
In series [4] the target is T2, ATP-dependent translocase ABCB1 (MDR1). The series can be described thus: in vitro. As to conditions: dog. The source holds these as a separate data set.
Description: as §2
Series [5] addresses T1, ATP-dependent translocase ABCB1. The series is described as follows: TP_TRANSPORTER: ATP hydrolysis in MDR1-expressing Sf9 cells. It is filed as functional.
For series [6] the target is unchanged. As to conditions: spodoptera frugiperda, sf9, 20 µM.
Description: Drug-stimulated Pgp ATPase activity ratio determined in MDR1-Sf9 cell membranes with test compound at a concentration of 20uM
In series [7] the target is T2, ATP-dependent translocase ABCB1 (MDR1). The series is described as follows: in vitro. As to conditions: dog. This is another data set of the same source.
Description: Ratio of apparent permeability from basolateral to apical side over apical to basolateral side determined in MDR1-MDCKII cells

Starred links: 1 amine or outer side, 2 acyl side, 3 side chain; linkers in the order of their positions; H or OH if unused. Positions of bridges follow the written chain, without caps; N, C: chain ends. Non-standard residues stand in square brackets, D forms with d. Residues, ends and D or L forms follow the SMILES beside them. Chains are numbered I, II in the order given. Actinocin(9to1) = Cc1c2oc3c(C)ccc(C(=O)[*:1])c3nc-2c(C(=O)[*:2])c(N)c1=O; NMeV = CN[C@H](C(=O)O)C(C)C; Sar = CNCC(=O)O
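For Ratio ATPase activity in this document: Compound-stimulated ATPase activity measured in membrane preparations of MDR1-expressing Sf9 cells.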

T1 sequence (P08183 whole entry): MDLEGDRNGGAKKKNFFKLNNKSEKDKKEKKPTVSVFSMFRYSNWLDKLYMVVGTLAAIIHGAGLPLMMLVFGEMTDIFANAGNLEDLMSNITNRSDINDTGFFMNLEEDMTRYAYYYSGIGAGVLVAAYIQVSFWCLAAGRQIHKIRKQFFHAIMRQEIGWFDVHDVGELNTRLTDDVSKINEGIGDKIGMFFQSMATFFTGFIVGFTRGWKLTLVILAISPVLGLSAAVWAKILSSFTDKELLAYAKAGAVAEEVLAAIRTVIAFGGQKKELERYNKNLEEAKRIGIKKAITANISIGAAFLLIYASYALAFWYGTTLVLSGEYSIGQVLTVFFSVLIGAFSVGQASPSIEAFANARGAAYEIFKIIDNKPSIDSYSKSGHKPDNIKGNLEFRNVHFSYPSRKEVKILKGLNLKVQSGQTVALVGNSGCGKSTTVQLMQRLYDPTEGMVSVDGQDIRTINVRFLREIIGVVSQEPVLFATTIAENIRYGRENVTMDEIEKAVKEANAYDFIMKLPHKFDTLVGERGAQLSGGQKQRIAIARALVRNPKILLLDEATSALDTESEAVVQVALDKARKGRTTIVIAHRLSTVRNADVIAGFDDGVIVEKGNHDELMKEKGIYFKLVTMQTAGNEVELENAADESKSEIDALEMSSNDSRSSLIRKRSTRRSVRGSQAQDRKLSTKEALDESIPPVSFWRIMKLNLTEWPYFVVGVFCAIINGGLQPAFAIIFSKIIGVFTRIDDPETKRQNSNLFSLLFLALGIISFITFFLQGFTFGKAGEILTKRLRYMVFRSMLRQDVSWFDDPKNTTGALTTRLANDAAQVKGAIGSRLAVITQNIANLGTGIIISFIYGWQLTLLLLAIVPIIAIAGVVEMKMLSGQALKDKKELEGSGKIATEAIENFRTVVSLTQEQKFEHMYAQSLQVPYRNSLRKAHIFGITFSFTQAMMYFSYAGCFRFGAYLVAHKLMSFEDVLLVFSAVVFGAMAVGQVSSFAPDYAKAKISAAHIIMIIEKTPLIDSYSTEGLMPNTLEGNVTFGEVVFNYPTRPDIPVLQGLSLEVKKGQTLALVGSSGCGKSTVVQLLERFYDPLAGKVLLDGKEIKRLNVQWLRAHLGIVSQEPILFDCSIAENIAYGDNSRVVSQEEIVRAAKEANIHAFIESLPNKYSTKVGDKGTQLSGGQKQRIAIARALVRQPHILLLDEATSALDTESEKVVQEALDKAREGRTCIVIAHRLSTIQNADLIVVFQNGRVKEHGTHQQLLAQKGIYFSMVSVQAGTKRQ
T2 sequence (P08183 whole entry): as above

The term Papp denotes the rate of passage across a membrane or cell layer, normalised by area and donor concentration. The low end stands for poor permeation, the high end for ready permeation. In general, Papp A→B refers to how fast a substance crosses the layer from the apical side. A low value points to slow passage. One may read the Papp B→A as how fast a substance crosses the layer from the basolateral side. On to `CC(C)CN(C[C@@H](O)[C@H](Cc1ccccc1)NC(=O)O[C@H]1CCOC1)S(=O)(=O)c1ccc(N)cc1`, for which the Papp in series [1] (mdr1-mdckii) is 2.17 ×10⁻⁶ cm/s; in series [2] (mdr1-mdckii), 70.3 ×10⁻⁶ cm/s. This compound came in with a Papp A→B in series [3] (MDCK-MDR1, Papp) of 3.73 ×10⁻⁶ cm/s. In addition, in series [4] (MDCK-MDR1, Papp), the Papp B→A turned out to be 98.7 ×10⁻⁶ cm/s.

What is called efflux ratio is a quotient of directional permeabilities that is used to spot active efflux. With `CC[C@H]1OC(=O)[C@H](C)[C@@H](O[C@H]2C[C@@](C)(OC)[C@@H](O)[C@H](C)O2)[C@H](C)[C@@H](O[C@@H]2O[C@H](C)C[C@H](N(C)C)[C@H]2O)[C@](C)(OC)C[C@@H](C)C(=O)[C@H](C)[C@@H](O)[C@]1(C)O` [CLARITHROMYCIN], the Activity result in series [5] is “substrate [+]”. In series [6], this compound registered a Ratio_ATPase activity of 3.55. This compound also had a Papp A→B in series [3] (MDCK-MDR1, Papp) of 1.08 ×10⁻⁶ cm/s. Further, in series [4] (MDCK-MDR1, Papp), the Papp B→A turned out to be 33.6 ×10⁻⁶ cm/s. The efflux ratio in series [7] (MDCK-MDR1, Ratio_Papp) amounted to 31.3.

On to `COc1cc2c(c(OC)c1OC)-c1ccc(OC)c(=O)cc1[C@@H](NC(C)=O)CC2` [COLCHICINE], for which, in series [5], the Activity entry was “is not a substrate [-]”. In series [6], this compound displayed a Ratio_ATPase activity of 1.23. For the same compound, in series [3] (MDCK-MDR1), the Papp A→B amounted to 1.79 ×10⁻⁶ cm/s. For the same compound, the Papp B→A in series [4] (MDCK-MDR1) turned out to be 20.2 ×10⁻⁶ cm/s. Besides, in series [7] (MDCK-MDR1), the efflux ratio was 11.3.

On to `Cc1c2oc3c(C)ccc(C(=O)N[C@@H]4C(=O)N[C@H](C(C)C)C(=O)N5CCC[C@H]5C(=O)N(C)CC(=O)N(C)[C@@H](C(C)C)C(=O)O[C@@H]4C)c3nc-2c(C(=O)N[C@@H]2C(=O)N[C@H](C(C)C)C(=O)N3CCC[C@H]3C(=O)N(C)CC(=O)N(C)[C@@H](C(C)C)C(=O)O[C@@H]2C)c(N)c1=O` [DACTINOMYCIN] (I: T[dV]P[Sar][NMeV] / II: T[dV]P[Sar][NMeV]; ester I:1-I:C, II:1-II:C; linker I:N-II:N via Actinocin(9to1)), for which the Activity entry in series [5] was “is not a substrate [-]”. For the same compound, the Ratio_ATPase activity in series [6] was 1.2. In series [3] (MDCK-MDR1, Papp), this compound displayed an apical-to-basolateral permeability (Papp A→B) of under 0.021 ×10⁻⁶ cm/s. This compound also showed an apparent permeability from basolateral to apical (Papp B→A) in series [4] (MDCK-MDR1, Papp) of 1.6 ×10⁻⁶ cm/s. The efflux ratio in series [7] (MDCK-MDR1, Ratio_Papp) was over 80.

Take `COc1cccc2c1C(=O)c1c(O)c3c(c(O)c1C2=O)C[C@@](O)(C(C)=O)C[C@@H]3O[C@H]1C[C@H](N)[C@H](O)[C@H](C)O1` [DAUNORUBICIN]: the Activity result in series [5] was “is not a substrate [-]”. Moreover, the Ratio_ATPase activity in series [6] was found to be 1.69. The compound further came in with an apparent permeability from apical to basolateral (Papp A→B) in series [3] (MDCK-MDR1, Papp) of 0.547 ×10⁻⁶ cm/s. This compound yielded a basolateral-to-apical permeability (Papp B→A) in series [4] (MDCK-MDR1, Papp) of 7.77 ×10⁻⁶ cm/s. In addition, the efflux ratio in series [7] (MDCK-MDR1, Ratio_Papp) stood at 14.2.

For the compound `OC[C@@H](O)[C@@H](O)[C@H](O)[C@H](O)CO` [MANNITOL], the apparent permeability (Papp) in series [1] (mdr1-mdckii) was determined as 1.13 ×10⁻⁶ cm/s; in series [2] (mdr1-mdckii) it was 0.915 ×10⁻⁶ cm/s. The compound further gave a Ratio_ATPase activity in series [6] of 1.25. This compound also showed an apparent permeability from apical to basolateral (Papp A→B) in series [3] (MDCK-MDR1, Papp) of 1.13 ×10⁻⁶ cm/s. Besides, the Papp B→A in series [4] (MDCK-MDR1, Papp) was found to be 0.915 ×10⁻⁶ cm/s. The efflux ratio in series [7] (MDCK-MDR1, Ratio_Papp) is 0.82.

Turning to `COC(=O)Nc1nc2ccc(C(=O)c3ccccc3)cc2[nH]1` [MEBENDAZOLE], the Activity entry in series [5] was “substrate [+]”. The Ratio_ATPase activity in series [6] was determined as 2. Moreover, the Papp A→B in series [3] (MDCK-MDR1, Papp) came to 71.4 ×10⁻⁶ cm/s. Moreover, the Papp B→A in series [4] (MDCK-MDR1, Papp) amounted to 64.8 ×10⁻⁶ cm/s. In addition, the efflux ratio in series [7] (MDCK-MDR1, Ratio_Papp) was determined as 0.91.

As to `Cc1ncc2n1-c1ccc(Cl)cc1C(c1ccccc1F)=NC2` [MIDAZOLAM], the Activity result in series [5] is “substrate [+]”. For the same compound, the Ratio_ATPase activity in series [6] was 3.82. Besides, the apical-to-basolateral permeability (Papp A→B) in series [3] (MDCK-MDR1) worked out at 70.1 ×10⁻⁶ cm/s. Moreover, in series [4] (MDCK-MDR1), the basolateral-to-apical permeability (Papp B→A) turned out to be 56.4 ×10⁻⁶ cm/s. Also, the efflux ratio in series [7] (MDCK-MDR1) was 0.81.

For the compound `CN(C)C(=O)Oc1cccc([N+](C)(C)C)c1.[Br-]` [NEOSTIGMINE BROMIDE], in series [5], the Activity entry was “is not a substrate [-]”. For the same compound, in series [6], the Ratio_ATPase activity turned out to be 1.06. In series [3] (MDCK-MDR1), the apical-to-basolateral permeability (Papp A→B) turned out to be 0.758 ×10⁻⁶ cm/s. Moreover, the Papp B→A in series [4] (MDCK-MDR1) worked out at 1.37 ×10⁻⁶ cm/s. The efflux ratio in series [7] (MDCK-MDR1) is 1.81.

Turning to `COC(=O)C1=C(C)NC(C)=C(C(=O)OCCN(C)Cc2ccccc2)C1c1cccc([N+](=O)[O-])c1` (stereo unspecified) [NICARDIPINE], the Activity result in series [5] is “substrate [+]”. The compound further came in with a Ratio_ATPase activity in series [6] of 5.39. This compound gave a Papp A→B in series [3] (MDCK-MDR1, Papp) of 61.4 ×10⁻⁶ cm/s. The compound also returned a basolateral-to-apical permeability (Papp B→A) in series [4] (MDCK-MDR1, Papp) of 66.1 ×10⁻⁶ cm/s. For the same compound, the efflux ratio in series [7] (MDCK-MDR1, Ratio_Papp) was 1.08.

Consider `CCOC(=O)C1=C(C)NC(C)=C(C(=O)OC)C1c1cccc([N+](=O)[O-])c1` (stereo unspecified) [NITRENDIPINE], for which, in series [5], the Activity result is “substrate [+]”. The compound also displayed a Ratio_ATPase activity in series [6] of 3.22. For the same compound, the Papp A→B in series [3] (MDCK-MDR1, Papp) is 60.4 ×10⁻⁶ cm/s. Moreover, the Papp B→A in series [4] (MDCK-MDR1, Papp) is 48.3 ×10⁻⁶ cm/s. Further, the efflux ratio in series [7] (MDCK-MDR1, Ratio_Papp) stood at 0.8.

Consider `CC(=O)O[C@H]1C(=O)[C@@]2(C)[C@H]([C@H](OC(=O)c3ccccc3)[C@]3(O)C[C@H](OC(=O)[C@H](O)[C@@H](NC(=O)c4ccccc4)c4ccccc4)C(C)=C1C3(C)C)[C@]1(OC(C)=O)CO[C@@H]1C[C@@H]2O` [PACLITAXEL], for which, in series [5], the Activity result was “substrate [+]”. The compound also came in with a Ratio_ATPase activity in series [6] of 2.63. The compound further had an apical-to-basolateral permeability (Papp A→B) in series [3] (MDCK-MDR1, Papp) of under 0.125 ×10⁻⁶ cm/s. Moreover, the Papp B→A in series [4] (MDCK-MDR1, Papp) was found to be 13.5 ×10⁻⁶ cm/s. In addition, the efflux ratio in series [7] (MDCK-MDR1, Ratio_Papp) was over 108.

Turning to `CC(C)NCC(O)COc1cccc2ccccc12` (stereo unspecified) [PROPRANOLOL], the Papp stood at 49.6 ×10⁻⁶ cm/s in series [1] (MDCK-MDR1) and 51.4 ×10⁻⁶ cm/s in series [2] (MDCK-MDR1). This compound had a Ratio_ATPase activity in series [6] of 1.33. In addition, the Papp A→B in series [3] (MDCK-MDR1, Papp) was found to be 49.6 ×10⁻⁶ cm/s. Moreover, in series [4] (MDCK-MDR1, Papp), the Papp B→A was 51.4 ×10⁻⁶ cm/s. For the same compound, in series [7] (MDCK-MDR1, Ratio_Papp), the efflux ratio is 1.04.

On to `COc1ccc(C[C@H](N)C(=O)N[C@H]2[C@@H](O)[C@H](n3cnc4c(N(C)C)ncnc43)O[C@@H]2CO)cc1` [PUROMYCIN], for which, in series [5], the Activity entry was “is not a substrate [-]”. The same compound showed a Ratio_ATPase activity in series [6] of 1.21. Also, in series [3] (MDCK-MDR1, Papp), the apparent permeability from apical to basolateral (Papp A→B) was 1.15 ×10⁻⁶ cm/s. This compound also gave a Papp B→A in series [4] (MDCK-MDR1, Papp) of 3.56 ×10⁻⁶ cm/s. For the same compound, in series [7] (MDCK-MDR1, Ratio_Papp), the efflux ratio turned out to be 3.1.

As for `COc1cc(Cc2cnc(N)nc2N)cc(OC)c1OC` [TRIMETHOPRIM], the Activity result in series [5] is “substrate [+]”. This compound also gave a Ratio_ATPase activity in series [6] of 3.61. In series [3] (MDCK-MDR1, Papp), this compound displayed an apparent permeability from apical to basolateral (Papp A→B) of 7.39 ×10⁻⁶ cm/s. The compound further gave a Papp B→A in series [4] (MDCK-MDR1, Papp) of 26.7 ×10⁻⁶ cm/s. Besides, the efflux ratio in series [7] (MDCK-MDR1, Ratio_Papp) is 3.61.

With `CC[C@]1(O)C[C@H]2CN(CCc3c([nH]c4ccccc34)[C@@](C(=O)OC)(c3cc4c(cc3OC)N(C=O)[C@H]3[C@@](O)(C(=O)OC)[C@H](OC(C)=O)[C@]5(CC)C=CCN6CC[C@]43[C@@H]65)C2)C1` [VINCRISTINE], the Activity result in series [5] was “is not a substrate [-]”. For the same compound, in series [6], the Ratio_ATPase activity worked out at 1.46. Also, the apparent permeability from apical to basolateral (Papp A→B) in series [3] (MDCK-MDR1, Papp) worked out at 0.236 ×10⁻⁶ cm/s. The apparent permeability from basolateral to apical (Papp B→A) in series [4] (MDCK-MDR1, Papp) was found to be 1.49 ×10⁻⁶ cm/s. Further, the efflux ratio in series [7] (MDCK-MDR1, Ratio_Papp) came out at 6.31.

Turning to `CCC1=C[C@@H]2CN(C1)Cc1c([nH]c3ccccc13)[C@@](C(=O)OC)(c1cc3c(cc1OC)N(C)[C@H]1[C@@](O)(C(=O)OC)[C@H](OC(C)=O)[C@]4(CC)C=CCN5CC[C@]31[C@@H]54)C2` [VINORELBINE], the Activity result in series [5] is “is not a substrate [-]”. In series [6], this compound showed a Ratio_ATPase activity of 1.15. In series [3] (MDCK-MDR1, Papp), this compound gave a Papp A→B of 0.252 ×10⁻⁶ cm/s. The Papp B→A in series [4] (MDCK-MDR1, Papp) was determined as 17.6 ×10⁻⁶ cm/s. Besides, in series [7] (MDCK-MDR1, Ratio_Papp), the efflux ratio worked out at 69.8.

Values taken from ChEMBL document CHEMBL1908284, “Rational use of in vitro P-glycoprotein assays in drug discovery” (J Pharmacol Exp Ther, 2001).
